Results taken from patent US11365425B2, “Resistant protein for use in herbicide, encoding gene and application thereof” (BEIJING DABEINONG BIOTECHNOLOGY CO., LTD., priority 2016, dated 2022).
Like-named read-outs stand apart in the source and are kept apart here.

Experiments:
[1] = system: wild-type Arabidopsis thaliana plants; conditions: 560 g ae/ha dicamba (1 × dicamba) sprayed
Text: (§1) Arabidopsis thaliana was first transformed with the MTHFR66 gene. T1 transformants were initially selected from the background of untransformed seeds using a glufosinate selection scheme. The plants that were transformed with the recombinant expression vector DBN111101 were Arabidopsis thaliana plants (At mMTHFR66) into which an optimized MTHFR66 nucleotide sequence located in the chloroplast was introduced, and the plants that were transformed with the recombinant expression vector DBN111101N were Arabidopsis thaliana plants (At MTHFR66) into which a natural MTHFR66 nucleotide sequence located in the chloroplast was introduced. […] Arabidopsis thaliana T1 plants (At-mMTHFR66) into which an optimized MTHFR66 nucleotide sequence was introduced, Arabidopsis thaliana T1 plants (At-MTHFR66) into which a natural MTHFR66 nucleotide sequence was introduced and wild-type Arabidopsis thaliana plants (18 days after sowing) were tested for the herbicide tolerance effect to dicamba.
(§2) Arabidopsis thaliana T1 plants into which an optimized MTHFR66 nucleotide sequence was introduced, Arabidopsis thaliana T1 plants into which a natural MTHFR66 nucleotide sequence was introduced and wild-type Arabidopsis thaliana plants were sprayed with dicamba (560 g ae/ha, 1-fold field concentration) and a blank solvent (water) respectively. Plants were counted for the tolerance situations 7 days and 14 days after spraying: those having a consistent growth status with the blank solvent (water) group after 7 days were classified as highly resistant plants, those having curled rosette leaves after 7 days were classified as moderately resistant plants, those still not capable of bolting after 14 days were classified as lowly resistant plants, and those dead after 14 days were classified as non-resistant plants. Since each Arabidopsis thaliana T1 plant was an independent transformation event, a significant difference in individual T1 responses could be expected at a given dose. The results were shown as Table 1 and FIG. 9.

[2] = system: Arabidopsis thaliana T1 plants (At-MTHFR66); conditions: 560 g ae/ha dicamba (1 × dicamba) sprayed
Text: as §1, §2

[3] = system: Arabidopsis thaliana T1 plants (At-mMTHFR66); conditions: 560 g ae/ha dicamba (1 × dicamba) sprayed
Text: as §1, §2

[4] = system: maize plants (Zm-mMTHFR66); conditions: 4480 g ae/ha dicamba (8 × dicamba), V5-V6 stage, 21 days after spraying
Text: (§3) The maize plants into which the optimized MTHFR66 nucleotide sequence was introduced, the maize plants into which the natural MTHFR66 nucleotide sequence was introduced and wild-type maize plants (at V5-V6 stage) were respectively tested for the herbicide resistance effect to dicamba.
(§4) The maize plants into which the optimized MTHFR66 nucleotide sequence was introduced, the maize plants into which the natural MTHFR66 nucleotide sequence was introduced and wild-type maize T1 hybrid plants (at V5-V6 stage) were taken and sprayed with a dicamba herbicide (4480 g ae/ha, 8-fold field concentration) and a blank solvent (water) respectively. 21 days after spraying, the support root development situation was collected. A total of three strains (S1, S2 and S3) of Zm-mMTHFR66, a total of two strains (S4 and S5) of Zm-MTHFR66, and a total of 1 strain of wild type (CK) were taken; and 10-15 plants were selected from each strain and tested.

[5] = system: maize plants (Zm-MTHFR66); conditions: 4480 g ae/ha dicamba (8 × dicamba), V5-V6 stage, 21 days after spraying
Text: as §3, §4

[6] = system: wild-type maize plants (CK); conditions: 4480 g ae/ha dicamba (8 × dicamba), V5-V6 stage, 21 days after spraying
Text: as §3, §4

[7] = Dicamba demethylation function of MTHFR66 protein in the presence of trace tetrahydrofolate; assay type: biochemical; conditions: 1 mM dicamba, 30° C., 1 hour
Procedure: […] The reaction solution was lyophilized, and then dissolved by adding 300 μl of methanol. The amount of the generated intermediate metabolite of dicamba, DCSA, was detected using high performance liquid chromatography (HPLC).

[8] = Hydrolase functional determination and product identification of MTHFR66 protein; assay type: biochemical; conditions: absence of the electron acceptor NAD+
Procedure: Enzymatic reaction system (300 μL): containing 0.2 mg of MTHFR66, 1 mM 5-methyl-tetrahydrofolate (5-CH3—H4F) and a buffer system of Tris-HCl at a concentration of 100 mM (pH 8.0), which were reacted in a water bath at a temperature of 30° C. for 1 hour, then kept in boiling water for 1 min, after which the reaction was terminated. The reaction solution was lyophilized, dissolved by adding 300 μl of 0.1 mol/L KH2PO4 (pH 6.8, 1% ascorbic acid and 0.1% β-mercaptoethanol), filtered using a filter membrane (with a pore size of 0.22 μm), and detected using high performance liquid chromatography. Liquid chromatography conditions were: mobile phase: 0.05 mol/l KH2PO4 (pH 3.0):acetonitrile (90:10, V/V), Zorbax C218 ODS Spherex reversed phase column (5 μm, 4.6 mm×250 mm, Agilent, USA), column temperature of 23° C., UV-detector, with a detection wavelength of 298 nm, a sample injection volume of 20 μl, and a flow rate of 1.0 mL/min. Quantification was performed by peak area according to the external standard method.
Metabolites were identified through HPLC-MS (high performance liquid chromatography-mass spectrum) under the conditions as follows: mobile phase: 0.05 mol/l KH2PO4 (pH 3.0):acetonitrile (90:10, V/V), Zorbax XDB-C18, 5 cm×0.46 cm, 1.8 mm reversed phase column (5 μm, 4.6 mm×250 mm, Agilent, USA), and a flow rate of 0.25 mL/min. […]

[9] = Determination of enzymatic activity of MTHFR66 protein (dicamba to DCSA, HPLC); assay type: biochemical
Procedure: Enzymatic reaction system (300 μL): containing 1 mM substrate (dicamba), 0.2 mg of MTHFR66, 1 mM tetrahydrofolate (THF) and a buffer system of Tris-HCl at a concentration of 100 mM (pH 8.0), which were reacted in a water bath at a temperature of 30° C. for 1 hour, then kept in boiling water for 1 min, after which the reaction was terminated. The reaction solution was lyophilized, and then dissolved by adding 300 μl of methanol. The amount of the generated intermediate metabolite of dicamba, 3,6-dichlorosalicylic acid (DCSA), was detected using high performance liquid chromatography (HPLC). An enzymatic activity unit is defined as: the amount of enzyme required for degradation of dicamba to generate 1 nmol of product DCSA at pH 8.0, at a temperature of 30° C. within 1 min, and is expressed as U.

[10] = curled rosette leaves after 7 days
[11] = growth consistent with water group after 7 days
[12] = not capable of bolting after 14 days

In the case of `COc1c(Cl)ccc(Cl)c1C(=O)O` [dicamba, 3,6-dichloro-o-anisic acid], the “Moderately resistant (number of plants)” value [1, 10] is reported as 0, the “Non-resistant (number of plants)” value ([1]; dead after 14 days) is reported as 22 and the “Highly resistant (number of plants)” value [1, 11] is reported as 0. The “Lowly resistant (number of plants)” value [1, 12] was 0, the “Moderately resistant (number of plants)” value [2, 10] was 3 and the “Non-resistant (number of plants)” value ([2]; dead after 14 days) was 19. The “Highly resistant (number of plants)” value [2, 11] was 0, the “Lowly resistant (number of plants)” value [2, 12] was 2 and the “Moderately resistant (number of plants)” value [3, 10] was 18. The “Non-resistant (number of plants)” value ([3]; dead after 14 days) was 5, the “Highly resistant (number of plants)” value [3, 11] was 0 and the “Lowly resistant (number of plants)” value [3, 12] was 0. For the same molecule, the “Proportion of normally developed support root” value (“Proportion” for short) ([4]; strain S1 (Zm-mMTHFR66)) was 92.31%, the “Support root abnormally developed (number of plants)” value (“Support root abnormally developed” for short) ([4]; strain S1 (Zm-mMTHFR66)) was 1 and the “Support root normally developed (number of plants)” value (“Support root normally developed” below) ([4]; strain S1 (Zm-mMTHFR66)) was 12. The “Proportion” value ([4]; strain S2 (Zm-mMTHFR66)) was 90.91%, the “Support root abnormally developed” value ([4]; strain S2 (Zm-mMTHFR66)) was 1 and the “Support root normally developed” value ([4]; strain S2 (Zm-mMTHFR66)) was 10. For the same molecule, the “Proportion” value ([4]; strain S3 (Zm-mMTHFR66)) was 83.33%, the “Support root abnormally developed” value ([4]; strain S3 (Zm-mMTHFR66)) was 2 and the “Support root normally developed” value ([4]; strain S3 (Zm-mMTHFR66)) was 10. For the same molecule, the “Proportion” value ([5]; strain S4 (Zm-MTHFR66)) was 16.67%, the “Support root abnormally developed” value ([5]; strain S4 (Zm-MTHFR66)) was 10 and the “Support root normally developed” value ([5]; strain S4 (Zm-MTHFR66)) was 2. The “Proportion” value ([5]; strain S5 (Zm-MTHFR66)) was 30.77%, the “Support root abnormally developed” value ([5]; strain S5 (Zm-MTHFR66)) was 9 and the “Support root normally developed” value ([5]; strain S5 (Zm-MTHFR66)) was 4. The “Proportion” value [6] was 0%, the “Support root abnormally developed” value [6] was 16 and the “Support root normally developed” value [6] was 0.

B1: MTHFR66 protein: herbicide resistant protein, methyltetrahydrofolate reductase, amino acid sequence SEQ ID NO: 2 (289 amino acids) (protein, listed as Sphingomonas paucimobilis)
chain: MGSPVMAIDCDSVPDNLVHCFSIEMTGKDIDALQAAAPLLPPGTSVAVTFLPGENYETRIAACKAVRDLGFEPMPHFSARRIQDEAEFHDFLHAVVAEAKVRRCFVIAGDAAEPEGPYADSMQLIASGAFEAAGIDLIGVAGHPEGHPNMTAGEATAVLRAKTDEIERRGMAALIVTQFTFDAARTLDWLAEVRQAGIDVPVLLGVPGPAGIKTLLRFAARCGVGASASVLSKYGISIGHLLGSAGPDRFVDALRAGIGEQHGHVRLHFYPFGGLDKTARWIADYARKH
With B1 the “demethylation of dicamba to DCSA” value ([7]; in the presence of 0.01 mM tetrahydrofolate) was “can demethylate dicamba to generate DCSA”, the “demethylation of dicamba to DCSA” value ([7]; in the presence of 0.5 mM of tetrahydrofolate) was “can fully demethylate 1 mM dicamba to generate DCSA” and the “product of 5-methyl-tetrahydrofolate metabolism (HPLC-MS)” value [8] was “can hydrolyze 5-methyl-tetrahydrofolate to tetrahydrofolate”. For the same molecule, the “transformation of 5-methyl-tetrahydrofolate (HPLC)” value ([8]; 1 mM 5-methyl-tetrahydrofolate, 30° C., 1 hour) was “can transform 5-methyl-tetrahydrofolate to other substances”, the “DCSA generated within 1 hour” value ([9]; 1 mM dicamba, 0.2 mg MTHFR66, 1 mM THF, Tris-HCl pH 8.0, 30° C., 1 hour) was 0.15 mM and the specific enzymatic activity ([9]; U = enzyme generating 1 nmol DCSA from dicamba at pH 8.0, 30° C. within 1 min) was 3.75 U/mg.
